{"source": "patent US20260234130A1", "about": "“EP2 Antagonist Compounds” (Reservoir Neuroscience, Inc., priority 2022, published 2026)"}
{"molecular_target": "T1, EP2 receptor (Homo sapiens, UniProt P43116)", "T1 construct": "expressed in transfected cells; host or cells: CHO-K1 cells (ATCC), transient transfection with FuGENE 6", "T1 sequence (P43116 whole entry)": "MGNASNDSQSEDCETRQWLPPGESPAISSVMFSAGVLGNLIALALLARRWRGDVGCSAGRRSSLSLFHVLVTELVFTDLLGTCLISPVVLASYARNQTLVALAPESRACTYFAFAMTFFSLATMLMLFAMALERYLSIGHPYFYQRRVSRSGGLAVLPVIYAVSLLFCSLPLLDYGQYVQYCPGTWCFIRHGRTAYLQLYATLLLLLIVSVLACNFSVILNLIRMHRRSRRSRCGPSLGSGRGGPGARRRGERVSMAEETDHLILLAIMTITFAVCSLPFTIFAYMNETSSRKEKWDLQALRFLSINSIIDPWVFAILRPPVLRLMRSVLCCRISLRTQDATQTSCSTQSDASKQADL", "assay": "EP2 potency assay (cAMP TR-FRET, LANCE Ultra cAMP kit) in transfected CHO-K1 cells stimulated with PGE2 at EC80", "type": "cell-based", "details": "Table (IV), EP2 antagonism, CHO-K1 cells expressing EP2, PGE2 at EC80", "experimental": "(§1) Compound potency was measured using a cAMP TR-FRET assay. CHO-K1 cells (ATCC) were seeded at a density of 9.75×105 in 6 cm plates, and then on the following day cell media was changed to Opti-Mem I reduced serum media (Gibco), and transfected with a plasmid for expression of the EP2 receptor (the target receptor of interest), using the FuGENE 6 Transfection reagent (Promega). After 6 hours incubation, the cell media was replaced with F12 medium supplemented with 10% FBS and 100 U/ml Pen-Strep. 24 hours after transfection, cells were harvested and seeded at a density of 3000 cells/well in a 384 well plate to perform the cAMP assay, using the LANCE Ultra cAMP assay kit (PerkinElmer). For each test compound of interest, 10 nl/well of serially diluted test compound was added to each well, resulting in a range of 10 serially diluted compound concentrations from 10000 nM to 0.038 nM, with duplicate wells for each concentration. Plates were then centrifuged at 1000 rpm for 1 min, agitated at 600 rpm at R.T. for 2 min, and incubated at 25° C. for 5 min. The reference agonist, prostaglandin E2 (MCE), was added to each well at the appropriate concentration to reach its EC80 value. Plates were then centrifuged at 1000 rpm for 1 min, agitated at 600 rpm at R.T. for 2 min, and incubated at 25° C. for 30 min. To measure levels of cAMP, 5 μl/well of Eu-cAMP working solution and 5 μl/well of Ulight-anti-cAMP working solution were added to each well, and the plate was centrifuged at 1000 rpm for 1 min, agitated at 600 rpm at R.T. for 2 min, and incubated at 25° C. for 15 min. Levels of TR-FRET fluorescence were measured in each well using an EnVision microplate reader (excitation wavelength=337 nm and emission wavelength=615 and 665 nm). A dose-response curve was prepared by plotting percent inhibition for each compound concentration, and then IC50 was calculated by fitting a curve to the plotted values and extrapolating the IC50 concentration. […] Potency data is grouped into categories of AA (IC50<100 nM); A (IC50=100 to 500 nM); B (IC50=500 nM to […]); C (IC50=1 μM to 5 μM); and D (IC50>5 μM).", "units": {"IC50": "nM"}}
{"smiles": "COc1ccc(C(N2CCC(COc3ccc(-c4ccc(C#N)cc4)cc3)(C(=O)O)C2)C(F)(F)F)cc1", "note": "(stereo not shown) [I-2, 3-(((4′-cyano-[1,1′-biphenyl]-4-yl)oxy)methyl)-1-(2,2,2-trifluoro-1-(4-methoxyphenyl)ethyl)pyrrolidine-3-carboxylic acid]", "IC50": "> 5000"}
{"smiles": "COc1ccc(C(=O)N2CCC(COc3ccc(C45CC(C#N)(C4)C5)cc3)(C(=O)O)C2)cc1", "note": "(stereo not shown) [I-6, 3-((4-(3-cyanobicyclo[1.1.1]pentan-1-yl)phenoxy)methyl)-1-(4-methoxybenzoyl)pyrrolidine-3-carboxylic acid]", "IC50": "< 100"}
{"smiles": "COc1ccc(C(=O)N2CCC(COc3ccc(C45CC(C4)C5)cc3)(C(=O)O)C2)cc1", "note": "(stereo not shown) [I-7, 3-((4-(bicyclo[1.1.1]pentan-1-yl)phenoxy)methyl)-1-(4-methoxybenzoyl)pyrrolidine-3-carboxylic acid]", "IC50": "100 to 500"}
{"smiles": "COc1ccc(C(=O)N2CCC(COc3ccc(C45CC(C(N)=O)(C4)C5)cc3)(C(=O)O)C2)cc1", "note": "(stereo not shown) [I-8, 3-(4-{3-carbamoylbicyclo[1.1.1]pentan-1-yl}phenoxymethyl)-1-(4-methoxybenzoyl)pyrrolidine-3-carboxylic acid]", "IC50": "100 to 500"}
{"smiles": "COc1ccc(C(=O)N2CCC(COc3ccc(-c4ccc(C#N)cc4)cc3)(S(C)(=N)=O)C2)cc1", "note": "(stereo not shown) [I-9, 4′-((1-(4-methoxybenzoyl)-3-(S-methylsulfonimidoyl)pyrrolidin-3-yl)methoxy)-[1,1′-biphenyl]-4-carbonitrile]", "IC50": "> 5000"}
{"smiles": "COc1ccc(C(=O)N2CCC(COc3ccc(-c4ccc(C#N)cc4)cc3)(S(=O)(=O)NS(C)(=O)=O)C2)cc1", "note": "(stereo not shown) [I-10, 3-(((4′-cyano-[1,1′-biphenyl]-4-yl)oxy)methyl)-1-(4-methoxybenzoyl)-N-(methylsulfonyl)pyrrolidine-3-sulfonamide]", "IC50": "> 5000"}
{"smiles": "COc1ccc(C(=O)N2CCC(COc3ccc(C45CC(C(=O)O)(C4)C5)cc3)(C(=O)O)C2)cc1", "note": "(stereo not shown) [I-11, 3-((4-(3-carboxybicyclo[1.1.1]pentan-1-yl)phenoxy)methyl)-1-(4-methoxybenzoyl)pyrrolidine-3-carboxylic acid]", "IC50": "> 5000"}
{"smiles": "COc1ccc(C(=O)N2CCC(COc3ccc(-c4ccc(C#N)cc4)cc3)(C(O)C(F)(F)F)C2)cc1", "note": "(stereo not shown) [I-12, 4′-((1-(4-methoxybenzoyl)-3-(2,2,2-trifluoro-1-hydroxyethyl)pyrrolidin-3-yl)methoxy)-[1,1′-biphenyl]-4-carbonitrile]", "IC50": "> 5000"}
{"smiles": "COc1ccc(C(=O)N2CCC(COc3ccc(-c4ccc(C#N)cc4)cc3)(C(O)(O)C(F)(F)F)C2)cc1", "note": "(stereo not shown) [I-13, 4′-((1-(4-methoxybenzoyl)-3-(2,2,2-trifluoro-1,1-dihydroxyethyl)pyrrolidin-3-yl)methoxy)-[1,1′-biphenyl]-4-carbonitrile]", "IC50": "> 5000"}
{"smiles": "COc1ccc(C(=O)N2CCC(COc3ccc(Br)cc3)(C(O)C(F)(F)F)C2)cc1", "note": "(stereo not shown) [I-14, (3-((4-bromophenoxy)methyl)-3-(2,2,2-trifluoro-1-hydroxyethyl)pyrrolidin-1-yl)(4-methoxyphenyl)methanone]", "IC50": "> 5000"}
{"molecular_target": "T1, EP2 receptor", "assay": "EP2 potency assay (cAMP TR-FRET, LANCE Ultra cAMP kit) in transfected CHO-K1 cells stimulated with PGE2 at EC80", "type": "cell-based", "details": "Table (V), EP2 antagonism, CHO-K1 cells expressing EP2, PGE2 at EC80", "experimental": "as §1", "units": {"IC50": "nM"}}
{"smiles": "Fc1ccc2c(ccn2-c2cc(Cl)c3c(c2)CN(Cc2cnc(OCC(F)(F)F)nc2)CCO3)c1", "note": "[II-1, 9-chloro-7-(5-fluoro-1H-indol-1-yl)-4-((2-(2,2,2-trifluoroethoxy)pyrimidin-5-yl)methyl)-2,3,4,5-tetrahydrobenzo [f][1,4]oxazepine]", "IC50": "> 5000"}
{"smiles": "Cn1cc(-c2ncc(CN3CCOc4c(Cl)cc(-n5ccc6cc(F)ccc65)cc4C3)cn2)cn1", "note": "[II-2, 9-chloro-7-(5-fluoro-1H-indol-1-yl)-4-((2-(1-methyl-1H-pyrazol-4-yl)pyrimidin-5-yl)methyl)-2,3,4,5-tetrahydrobenzo[f][1,4] oxazepine]", "IC50": "1000 to 5000"}
{"smiles": "COc1ncc(CN2CCOc3c(Cl)cc(N4CCN(C)c5cc(F)ccc54)cc3C2)cn1", "note": "[II-3, 9-chloro-7-(6-fluoro-4-methyl-3,4-dihydroquinoxalin-1(2H)-yl)-4-((2-methoxypyrimidin-5-yl)methyl)-2,3,4,5-tetrahydrobenzo[f][1,4] oxazepine]", "IC50": "> 5000"}
{"smiles": "O=c1ncc(CN2CCOc3c(Cl)cc(-n4ccc5cc(F)c(F)cc54)cc3C2)c[nH]1", "note": "[II-4, 5-((9-chloro-7-(5,6-difluoro-1H-indol-1-yl)-2,3-dihydrobenzo[f][1,4]oxazepin-4(5H)-yl)methyl)pyrimidin-2(1H)-one]", "IC50": "1000 to 5000"}
{"smiles": "Cc1ncc(CN2CCOc3c(Cl)cc(-n4ccc5cc(F)ccc54)cc3C2)cn1", "note": "[II-5, 9-chloro-7-(5-fluoro-1H-indol-1-yl)-4-((2-methylpyrimidin-5-yl)methyl)-2,3,4,5-tetrahydrobenzo[f][1,4] oxazepine]", "IC50": "100 to 500"}
{"smiles": "N#Cc1ncc(CN2CCOc3c(Cl)cc(-n4ccc5cc(F)ccc54)cc3C2)cn1", "note": "[II-6, 5-((9-chloro-7-(5-fluoro-1H-indol-1-yl)-2,3-dihydrobenzo[f][1,4]oxazepin-4(5H)-yl)methyl)pyrimidine-2-carbonitrile]", "IC50": "500 to 1000"}
{"smiles": "Fc1ccc2c(ccn2-c2cc(Cl)c3c(c2)CN(Cc2cnc(-n4cccn4)nc2)CCO3)c1", "note": "[II-7, 4-((2-(1H-pyrazol-1-yl)pyrimidin-5-yl)methyl)-9-chloro-7-(5-fluoro-1H-indol-1-yl)-2,3,4,5-tetrahydrobenzo[f][1,4] oxazepine]", "IC50": "1000 to 5000"}
{"smiles": "Fc1ccc2c(ccn2-c2cc(Cl)c3c(c2)CN(Cc2cnc(C(F)(F)F)nc2)CCO3)c1", "note": "[II-8, 9-chloro-7-(5-fluoro-1H-indol-1-yl)-4-((2-(trifluoromethyl)pyrimidin-5-yl)methyl)-2,3,4,5-tetrahydrobenzo[f][1,4] oxazepine]", "IC50": "1000 to 5000"}
{"smiles": "Fc1ccc2c(ccn2-c2cc(Cl)c3c(c2)CN(Cc2cncnc2)CCO3)c1", "note": "[II-9, 9-chloro-7-(5-fluoro-1H-indol-1-yl)-4-(pyrimidin-5-ylmethyl)-2,3,4,5-tetrahydrobenzo[f][1,4] oxazepine]", "IC50": "100 to 500"}
{"smiles": "COc1ncc(CN2CCOc3c(Cl)cc(-n4ccc5cc(C6CC6)ccc54)cc3C2)cn1", "note": "[II-10, 9-chloro-7-(5-cyclopropyl-1H-indol-1-yl)-4-((2-methoxypyrimidin-5-yl)methyl)-2,3,4,5-tetrahydrobenzo[f][1,4] oxazepine]", "IC50": "> 5000"}
{"smiles": "Nc1ncc(CN2CCOc3c(Cl)cc(-n4ccc5cc(F)ccc54)cc3C2)c(N)n1", "note": "[II-11, 5-((9-chloro-7-(5-fluoro-1H-indol-1-yl)-2,3-dihydrobenzo[f][1,4]oxazepin-4(5H)-yl)methyl)pyrimidin-2,4-diamine]", "IC50": "100 to 500"}
{"smiles": "CS(=O)(=O)Nc1ncc(CN2CCOc3c(Cl)cc(-n4ccc5cc(F)ccc54)cc3C2)cn1", "note": "[II-13]", "IC50": "1000 to 5000"}
{"smiles": "CC(=O)Nc1ncc(CN2CCOc3c(Cl)cc(-n4ccc5cc(F)ccc54)cc3C2)cn1", "note": "[II-14, N-(5-((9-chloro-7-(5-fluoro-1H-indol-1-yl)-2,3-dihydrobenzo[f][1,4]oxazepin-4(5H)-yl)methyl)pyrimidin-2-yl)acetamide]", "IC50": "1000 to 5000"}
{"smiles": "O=C(O)c1ccc(CN2CCOc3c(Cl)cc(-n4ccc5cc(F)ccc54)cc3C2)cn1", "note": "[II-15, 5-((9-chloro-7-(5-fluoro-1H-indol-1-yl)-2,3-dihydrobenzo[f][1,4]oxazepin-4(5H)-yl)methyl)picolinic acid]", "IC50": "< 100"}
{"smiles": "Nc1ncc(CN2CCOc3c(Cl)cc(-n4ccc5cc(F)ccc54)cc3C2)c(=O)[nH]1", "note": "[II-16, 2-amino-5-((9-chloro-7-(5-fluoro-1H-indol-1-yl)-2,3-dihydrobenzo[f][1,4]oxazepin-4(5H)-yl)methyl)pyrimidin-4(3H)-one]", "IC50": "> 5000"}
